# Measurements from patent US7049332B2, “HIV inhibiting N-aminoimidazole derivatives” (K. U. Leuven Research & Development, priority 2001, dated 2006).
# Legend:
# HIV-2 (ROD) = assay: Inhibition of HIV-induced cytopathogenic effect in MT-4 cells (MTT), HIV-2; type: cell-based; conditions: for HIV-2 (ROD) SI: selectivity index = ratio of CC50 to IC50, HIV-2
# Experimental: (§1) A rapid and automated assay procedure was used for the in vitro evaluation of anti-HIV agents. An HTLV-1 transformed T4-cell line MT-4, which was previously shown to be highly susceptible to and permissive for HIV infection, served as the target cell line. Inhibition of the HIV-induced cytopathogenic effect was used as the end point. The viabitlity of both HIV-and mock-infected cells was assessed spectrophotometrically via in situ reduction of 3-(4,5-dimethylthiazol-2-yl)-2,5-diphenyltetrazolium bromide (MTT). The 50% cytotoxic concentration (CC50 in μg/ml) was defined as the concentration of compound that reduced the absorbance of the mock-infected control sample by 50%. The percent protection achieved by the compound in HIV-infected cells was calculated by the following formula:
# (§2) [formula] whereby (ODT)HIV is the optical density measured with a given concentration of the test compound in HIV-infected cells; (ODC)HIV is the optical density measured for the control untreated HIV-infected cells; (ODC)MOCK is the optical density measured for the control untreated mock-infected cells; all optical density values were determined at 540 nm. The dose achieving 50% protection according to the above formula was defmed as the 50% inhibitory concentration (IC50 in μg/ml). The ratio of CC50 to IC50 was defined as the selectivity index (SI).
# (§3) Cells: MT-4 cells (Miyoshi et al., 1982) were grown and maintained in RPMI 1640 medium supplemented with 10% heat-inactivated fetal calf serum, 2 mM 1-glutamine, 0.1% sodium bicarbonate, and 20 œg of gentamicin per ml.
# (§4) Viruses: The HIV-1(NL4.3) strain (Adachi et al., 1986) is a molecular clone obtained from the National Institutes of Health (Bethesda, Md.). The HIV-2(ROD) (Barr,-Sinoussi et al., 1983) stock was obtained from culture supernatant of HIV-2 infected cell lines.
# HIV-1 (NL4.3 WT) = assay: Inhibition of HIV-induced cytopathogenic effect in MT-4 cells (MTT), HIV-1; type: cell-based; conditions: for HIV-1 (NL4.3 WT) SI: selectivity index = ratio of CC50 to IC50, HIV-1
# Experimental: as §1, §2, §3, §4
# MT-4 cells = assay: Cytotoxicity in mock-infected MT-4 cells (MTT); type: cell-based
# Experimental: as §1, with “formula: Examples of inhibition of cell proliferation by particular compounds of formula (I) can be found by looking at the respective CC50 values in the MT-4 cell line. Cells: MT-4 cells (Miyoshi et al., 1982) were grown and maintained in RPMI 1640 medium supplemented with 10% heat-inactivated fetal calf serum, 2 mM […], 0.1% sodium bicarbonate, and 20 œg of gentamicin per ml.” for “formula:”
# [1] = Cytotoxicity in mock-infected MT-4 cells (MTT); type: cell-based; conditions: human; mock-infected MT-4 cells, absorbance reduced by 50%, MTT
# Experimental: as §1, with “formula: Examples of inhibition of cell proliferation by particular compounds of formula (I) can be found by looking at the respective CC50 values in the MT-4 cell line. Cells: MT-4 cells (Miyoshi et al., 1982) were grown and maintained in RPMI 1640 medium supplemented with 10% heat-inactivated fetal calf serum, 2 mM […], 0.1% sodium bicarbonate, and 20 œg of gentamicin per ml.” for “formula:”
# [2] = 50% protection against HIV-induced cytopathogenic effect, MT-4 cells, MTT
HIV-2 (ROD) IC50 (HIV-2 (ROD); [2]),HIV-1 (NL4.3 WT) IC50 (HIV-1 (NL4.3 WT); [2]),"IC50 (HIV-2 (ROD); Human immunodeficiency virus 2, MT4, 50% protection against HIV-induced cytopathogenic effect, MT-4 cells, MTT)","IC50 (HIV-1 (NL4.3 WT); Human immunodeficiency virus 1, MT4, 50% protection against HIV-induced cytopathogenic effect, MT-4 cells, MTT)",melting point,Structure (SMILES),HIV-2 (ROD) SI (HIV-2 (ROD)),HIV-1 (NL4.3 WT) SI (HIV-1 (NL4.3 WT)),cytotoxicity CC50 (MT-4 cells),CC50 [1]
>10.9 µg/mL,3.4 µg/mL,,,,"Cc1ncn(Nc2cccc(Cl)c2)c1-c1cccc(C#N)c1 [Compound 13.15, 1-(3-Chlorphenylamino)-5-(3-cyanophenyl)-4-methyl-1H-imidazole]",<1,3.2,10.9 µg/mL,
>32.1 µg/mL,13.8 µg/mL,,,,"Cc1[nH]c(=S)n(Nc2cccc(Cl)c2)c1-c1cccc(C#N)c1 [Compound 9.32, 1-(3-Chlorphenylamino)-5-(3-cyanophenyl)-2,3-dihydro-4-methyl-1H-imidazole-2-thione]",<1,2.3,32.1 µg/mL,
>12.3 µg/mL,3.1 µg/mL,,,,COc1cccc(Nn2c(-c3ccccc3)c(C)[nH]c2=S)c1 [Compound 9.31],<1,4.0,12.3 µg/mL,
,,> 17.1 µg/mL,1.6 µg/mL,190 °C,"Cc1[nH]c(=S)n(Nc2cccc(Br)c2)c1-c1ccccc1 [Compound 9.14, 1-(3-Bromophenylamino)-2,3-dihydro-4-methyl-5-phenyl-1H-imidazole-2-thione]",<1,10.5,,17.1 µg/mL
